Columns and labels:
[1] = molecular target: T1, Human KIF18A (amino acid sequence 1-417) (Homo sapiens, UniProt Q8NI77); assay: Enzyme activity detection experiment (ADP-Glo, KIF18A with tubulin and ATP); assay type: biochemical; settings: tubulin 60 μg/mL, ATP 25 μM, KIF18A protein 2.5 nM, 120 minutes at ambient temperature, ADP-Glo chemiluminescence
T1 construct: purchased Viva Biotech (Shanghai) Ltd
How it was run: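 KIF18A (2.5 nM) was incubated with tubulin (60 μg/mL as added), ATP (25 μM) and serially diluted compound for 120 min at ambient temperature. ADP formed was detected by ADP-Glo: reagent for 30 min, then detection reagent for 30 min in the dark, with chemiluminescence read-out.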

[2] = test system: OVCAR3 cells; assay: Cell proliferation activity test, OVCAR3 (CyQUANT Direct); assay type: cell-based; settings: Homo sapiens, OVCAR-3, 72 h, 3 days incubation, CyQUANT fluorescence detection, read-out: OVCAR-3 Cell Viability_IC50_nM
How it was run: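 OVCAR3 cells seeded overnight, then exposed to compounds at 0-10 μM final (0.20% DMSO) for 3 days at 37° C. Cell number read by CyQUANT Direct fluorescence after 60 min at 37° C.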

[3] = test system: HT29 cells; assay: CyQuant cell proliferation activity test, HT29; assay type: cell-based; settings: Homo sapiens, HT-29, 72 h, HT29 2000 cells per well, 3 days incubation, initial concentration 3000 nM, IC50 by XLFIT, read-out: HT-29 Cell Viability_IC50_nM
Procedure: Materials and Cells: HT29 cells were purchased from Nanjing Cobioer Biosciences Co., Ltd.; RPM-1640 medium, fetal bovine serum, Trypsin-EDTA (0.25%), DMSO, 96-well plates, and CyQuant reagents were purchased from ThermoFisher (USA).
Cell Culture: Culture HT29 cells with RPMI-1640 containing 10% fetal bovine serum under the condition of 37° C. and 5% CO2. Only cells in the logarithmic growth phase can be used for the test.
Cell Proliferation Activity Test: Use the CyQuant reagent to detect the proliferation inhibitory activity of compounds on HT29 cells. Adjust the cell density and inoculate 100 μL per well into the 96-well plate (HT29 at 2000 cells per well), then incubate overnight under the condition of 37° C. and […]. Add compounds of various target concentrations (initial concentration of 3000 nM, 3-fold dilution, 9 concentration gradients), and make the DMSO content 0.20%. Incubate the cell plates at 37° C. and 5% CO2 for 3 days. Incubate with CyQuant reagent for 1 h, read the plate by Envision, and calculate IC50 using XLFIT.

T1 sequence (Q8NI77 1-417): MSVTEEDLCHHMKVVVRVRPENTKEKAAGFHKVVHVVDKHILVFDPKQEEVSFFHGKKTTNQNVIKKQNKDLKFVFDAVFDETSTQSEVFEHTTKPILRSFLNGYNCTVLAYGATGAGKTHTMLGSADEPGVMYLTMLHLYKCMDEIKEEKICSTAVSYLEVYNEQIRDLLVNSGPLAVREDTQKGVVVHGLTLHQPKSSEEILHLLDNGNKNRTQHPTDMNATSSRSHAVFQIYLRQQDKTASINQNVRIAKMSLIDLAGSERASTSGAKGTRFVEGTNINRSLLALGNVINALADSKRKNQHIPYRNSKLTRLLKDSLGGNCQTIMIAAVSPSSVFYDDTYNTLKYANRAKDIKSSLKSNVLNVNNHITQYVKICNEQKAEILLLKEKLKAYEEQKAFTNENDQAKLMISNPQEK
T1 sequence (Q2XVP4 whole entry partner): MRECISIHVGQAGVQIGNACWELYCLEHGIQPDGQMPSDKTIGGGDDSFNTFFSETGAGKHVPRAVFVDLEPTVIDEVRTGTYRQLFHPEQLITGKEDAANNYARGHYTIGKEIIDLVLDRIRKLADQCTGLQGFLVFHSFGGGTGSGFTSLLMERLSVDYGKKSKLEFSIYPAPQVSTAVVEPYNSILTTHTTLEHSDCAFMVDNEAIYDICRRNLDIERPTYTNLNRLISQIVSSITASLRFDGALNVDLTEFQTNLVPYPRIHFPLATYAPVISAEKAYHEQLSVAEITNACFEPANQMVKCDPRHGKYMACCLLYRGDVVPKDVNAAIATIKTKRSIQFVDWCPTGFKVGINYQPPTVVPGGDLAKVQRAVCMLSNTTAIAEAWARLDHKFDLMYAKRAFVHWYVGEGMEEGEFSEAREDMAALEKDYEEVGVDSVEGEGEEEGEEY
T1 sequence (P02554 whole entry partner): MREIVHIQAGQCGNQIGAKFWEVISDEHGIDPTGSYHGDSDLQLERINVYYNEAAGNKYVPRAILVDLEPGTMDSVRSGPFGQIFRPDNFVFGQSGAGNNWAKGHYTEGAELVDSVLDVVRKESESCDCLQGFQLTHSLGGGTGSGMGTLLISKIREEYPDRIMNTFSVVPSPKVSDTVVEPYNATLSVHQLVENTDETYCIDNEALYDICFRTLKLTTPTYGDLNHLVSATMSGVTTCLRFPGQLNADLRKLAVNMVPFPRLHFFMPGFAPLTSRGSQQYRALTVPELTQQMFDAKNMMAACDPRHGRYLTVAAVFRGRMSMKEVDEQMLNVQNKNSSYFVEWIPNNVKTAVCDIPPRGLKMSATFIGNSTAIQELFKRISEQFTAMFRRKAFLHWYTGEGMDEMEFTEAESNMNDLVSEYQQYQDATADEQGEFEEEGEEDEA

Row | Compound | IC50 [1] [nM] | IC50 [2] [nM] | IC50 [3] [nM]
1 | Cc1cc(-c2cn(-c3ccc(NS(=O)(=O)CCO)cc3N3CCC4(CC3)CC4)nn2)nc(C2=CCC(F)(F)CC2)n1 [Example 37, N-(4-(4-(2-(4,4-difluorocyclohex-1-en-1-yl)-6-methylpyrimidin-4-yl)-1H-1,2,3-triazol-1-yl)-3-(6-azaspiro[2.5]octan-6-yl)phenyl)-2-hydroxyethane-1-sulfonamide] | 253 | 87 | 161
2 | Cc1cc(-c2cn(-c3ccc(NS(=O)(=O)CCO)cc3N3CCC4(CC3)CC4)nn2)cc(-c2cnn(C)c2)n1 [Example 39, 2-hydroxy-N-(4-(4-(2-methyl-6-(1-methyl-1H-pyrazol-4-yl)pyridin-4-yl)-1H-1,2,3-triazol-1-yl)-3-(6-azaspiro[2.5]octan-6-yl)phenyl)ethane-1-sulfonamide] | 414 | 1330 | 1570
3 | Cc1cc(-c2cn(-c3ccc(NS(=O)(=O)CCO)cc3N3CCC4(CC3)CC4)nn2)nc(N2CCCCC2)n1 [Example 41, 2-hydroxy-N-(4-(4-(6-methyl-2-(piperidin-1-yl)pyrimidin-4-yl)-1H-1,2,3-triazol-1-yl)-3-(6-azaspiro[2.5]octan-6-yl)phenyl)ethanesulfonamide] | 44 | 15 | 14
4 | Cc1cc(-c2cn(-c3ccc(NS(=O)(=O)CCO)cc3N3CCC4(CC3)CC4)nn2)nc(N2CCOCC2)n1 [Example 42, 2-hydroxy-N-(4-(4-(6-methyl-2-morpholinopyrimidin-4-yl)-1H-1,2,3-triazol-1-yl)-3-(6-azaspiro[2.5]octan-6-yl)phenyl)ethanesulfonamide] | 19 | 12 | 15
5 | Cc1cc(-c2cn(-c3ccc(NS(=O)(=O)CCO)cc3N3CCC4(CC3)CC4)nn2)nc(N2CCO[C@@H](C)C2)n1 [Example 43, (S)-2-hydroxy-N-(4-(4-(6-methyl-2-(2-methylmorpholino)pyrimidin-4-yl)-1H-1,2,3-triazol-1-yl)-3-(6-azaspiro[2.5]octan-6-yl)phenyl)ethane-1-sulfonamide] | 44 | 16 | 18
6 | Cc1cc(-c2cn(-c3ccc(NS(=O)(=O)CCO)cc3N3CCC4(CC3)CC4)nn2)nc(N2C[C@@H](C)O[C@@H](C)C2)n1 [Example 44, N-(4-(4-(2-((2R,6S)-2,6-dimethylmorpholino)-6-methylpyrimidin-4-yl)-1H-1,2,3-triazol-1-yl)-3-(6-azaspiro[2.5]octan-6-yl)phenyl)-2-hydroxyethane-1-sulfonamide] | 22 | 14 | 12
7 | Cc1cc(-c2cn(-c3ccc(NS(=O)(=O)CCO)cc3N3CCC4(CC3)CC4)nn2)nc(N2CCOCC2C)n1 (stereo not drawn) [Example 45] | 88 | 22 | 13
8 | Cc1cc(-c2cn(-c3ccc(NS(=O)(=O)CCO)cc3N3CCC4(CC3)CC4)nn2)nc(N2[C@H](C)COC[C@@H]2C)n1 [Example 46, N-(4-(4-(2-((3S,5R)-3,5-dimethylmorpholin)-6-methylpyrimidin-4-yl)-1H-1,2,3-triazol-1-yl)-3-(6-azaspiro[2.5]octan-6-yl)phenyl)2-hydroxyethanesulfonamide] | 151 | 14 | 39
9 | Cc1cc(-c2cn(-c3ccc(NS(=O)(=O)CCO)cc3N3CCC4(CC3)CC4)nn2)nc(N2C3CCC2COC3)n1 [Example 48, N-(4-(4-(2-(3-oxa-8-azabicyclo[3.2.1]octan-8-yl)-6-methylpyrimidin-4-yl)-1H-1,2,3-triazol-1-yl)-3-(6-azaspiro[2.5]octan-6-yl)phenyl)-2-hydroxyethane-1-sulfonamide] | 22 | 17 | 14
10 | Cc1cc(-c2cn(-c3ccc(NS(=O)(=O)CCO)cc3N3CCC4(CC3)CC4)nn2)nc(N2C3COCC2C3)n1 [Example 49, N-(4-(4-(2-(3-oxa-6-azabicyclo[3.1.1]heptan-6-yl)-6-methylpyrimidin-4-yl)-1H-1,2,3-triazol-1-yl)-3-(6-azaspiro[2.5]octan-6-yl)phenyl)-2-hydroxyethane-1-sulfonamide] | 61 | 54 | 31
11 | Cc1cc(-c2cn(-c3ccc(NS(=O)(=O)CCO)cc3N3CCC4(CC3)CC4)nn2)nc(N2[C@H](C)CC(F)(F)C[C@@H]2C)n1 [Example 50, N-(4-(4-(2-((2S,6R)-4,4-difluoro-2,6-dimethylpiperidin-1-yl)-6-methylpyrimidin-4-yl)-1H-1,2,3-triazol-1-yl)-3-(6-azaspiro[2.5]octan-6-yl)phenyl)-2-hydroxyethane-1-sulfonamide] | 1050 | 222 | 245
12 | COc1cc(-c2cn(-c3ccc(NS(=O)(=O)CCO)cc3N3CCC4(CC3)CC4)nn2)nc(N2CCC(F)(F)CC2)n1 [Example 51, N-(4-(4-(2-(4,4-difluoropiperidin-1-yl)-6-methoxypyrimidin-4-yl)-1H-1,2,3-triazol-1-yl)-3-(6-azaspiro[2.5]octan-6-yl)phenyl)-2-hydroxyethanesulfonamide] | 131 | 24 | 22
13 | O=S(=O)(CCO)Nc1ccc(-n2cc(-c3cc(O)nc(N4CCC(F)(F)CC4)n3)nn2)c(N2CCC3(CC2)CC3)c1 [Example 52, N-(4-(4-(2-(4,4-difluoropiperidin-1-yl)-6-hydroxypyrimidin-4-yl)-1H-1,2,3-triazol-1-yl)-3-(6-azaspiro[2.5]octan-6-yl)phenyl)-2-hydroxyethane-1-sulfonamide] | 25 | 110 | 299
14 | COc1cc(-c2cn(-c3ccc(NS(=O)(=O)CCO)cc3N3CCC4(CC3)CC4)nn2)nc(N2[C@H](C)COC[C@@H]2C)n1 [Example 53, N-(4-(4-(2-((3S,5R)-3,5-dimethylmorpholino)-6-methoxypyrimidin-4-yl)-1H-1,2,3-triazol-1-yl)-3-(6-azaspiro[2.5]octan-6-yl)phenyl)-2-hydroxyethane-1-sulfonamide] | 296 | 35 | 47
15 | CN(C)c1cc(-c2cn(-c3ccc(NS(=O)(=O)CCO)cc3N3CCC4(CC3)CC4)nn2)nc(N2CCC(F)(F)CC2)n1 [Example 54, N-(3-{6-azaspiro[2.5]octan-6-yl}-4-{4-[2-(4,4-difluoropiperidin-1-yl)-6-(dimethylamino)pyrimidin-4-yl]-1H-1,2,3-triazol-1-yl}phenyl)-2-hydroxyethane-1-sulfonamide] | 277 | 84 | 73
16 | Nc1cc(-c2cn(-c3ccc(NS(=O)(=O)CCO)cc3N3CCC4(CC3)CC4)nn2)nc(N2CCC(F)(F)CC2)n1 [Example 55, N-(4-{4-[6-amino-2-(4,4-difluoropiperidin-1-yl)pyrimidin-4-yl]-1H-1,2,3-triazol-1-yl}-3-{6-azaspiro[2.5]octan-6-yl}phenyl)-2-hydroxyethane-1-sulfonamide] | 40 | 3 | 3
17 | CNc1cc(-c2cn(-c3ccc(NS(=O)(=O)CCO)cc3N3CCC4(CC3)CC4)nn2)nc(N2CCC(F)(F)CC2)n1 [Example 56, N-(3-{6-azaspiro[2.5]octan-6-yl}-4-{4-[2-(4,4-difluoropiperidin-1-yl)-6-(methylamino)pyrimidin-4-yl]-1H-1,2,3-triazol-1-yl}phenyl)-2-hydroxyethane-1-sulfonamide] | 110 | 9 | 8
